Source: PubChem BioAssay (NCI)
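The compound was tested at five concentrations on cells cultured in 96-well plates, with a 48-hour exposure period. At the TGI there is no net growth.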 *1 amine or outer side, *2 acyl side, *3 side chain or, on linkers, in order; H or OH if unused. Where a SMILES comes first, the peptide text is derived from it. Bridges are numbered along the chain shown (N, C = ends). [ ]: non-standard residue; d: D form. The star is where a group is joined. ξ: configuration not given here. X34 = O=C(C(CCCCNO[*:3])N[*:1])[*:2]; Fmoc = O=C(OCC1c2ccccc2-c2ccccc21)*; ξW = NC(Cc1c[nH]c2ccccc12)C(=O)O; ξP = O=C(O)C1CCCN1

Experiments:
Experiment in all cases: DTP human tumour cell line panel, 48 h
A549 NSCLC = test system: A549 NSCLC
BT-549 breast = test system: BT-549 breast
CCRF-CEM leukemia = test system: CCRF-CEM leukemia
HCC-2998 colon = test system: HCC-2998 colon
HCT-116 colon = test system: HCT-116 colon
HCT-15 colon = test system: HCT-15 colon
HOP-62 NSCLC = test system: HOP-62 NSCLC
LOX IMVI melanoma = test system: LOX IMVI melanoma
MCF7 breast = test system: MCF7 breast
MDA-MB-435 = test system: MDA-MB-435
MOLT-4 leukemia = test system: MOLT-4 leukemia
NCI-H226 lung = test system: NCI-H226 lung
NCI-H460 lung = test system: NCI-H460 lung
PC-3 prostate = test system: PC-3 prostate
RPMI-8226 leukemia = test system: RPMI-8226 leukemia
SF-295 CNS = test system: SF-295 CNS
SK-MEL-5 melanoma = test system: SK-MEL-5 melanoma
SN12C renal = test system: SN12C renal
SW-620 colon = test system: SW-620 colon
UACC-257 melanoma = test system: UACC-257 melanoma

Compound | TGI (A549 NSCLC) [µM] | TGI (BT-549 breast) [µM] | TGI (CCRF-CEM leukemia) [µM] | TGI (HCC-2998 colon) [µM] | TGI (HCT-116 colon) [µM] | TGI (HCT-15 colon) [µM] | TGI (HOP-62 NSCLC) [µM] | TGI (LOX IMVI melanoma) [µM] | TGI (MCF7 breast) [µM] | TGI (MDA-MB-435) [µM] | TGI (MOLT-4 leukemia) [µM] | TGI (NCI-H226 lung) [µM] | TGI (NCI-H460 lung) [µM] | TGI (PC-3 prostate) [µM] | TGI (RPMI-8226 leukemia) [µM] | TGI (SF-295 CNS) [µM] | TGI (SK-MEL-5 melanoma) [µM] | TGI (SN12C renal) [µM] | TGI (SW-620 colon) [µM] | TGI (UACC-257 melanoma) [µM]
Cc1ccc(C(=O)Nc2ccc(CP(=O)(O)O)cc2CP(=O)(O)O)cc1NC(=O)c1cccc(N)c1 | > 100 | > 100 | > 100 | > 100 | > 100 | > 100 | > 100 | > 100 | > 100 | > 100 | > 100 | > 100 | > 100 | > 100 | > 100 | > 100 | > 100 | > 100 | > 100 | > 100
COc1ccc(C2CC(c3c(O)ccc4ccccc34)=NN2c2ccc([N+](=O)[O-])cc2[N+](=O)[O-])cc1OC (stereo unspecified) | 98.3 | > 100 | > 50.3 | > 100 | > 100 | > 100 | > 71.7 | > 100 | > 91.7 | > 100 | 21.5 | 48.9 | > 100 | > 70.3 | 15.8 | > 87.1 | 30.2 | > 100 | > 100 | > 93.9
CCOP(=O)(OCC)/C(C#N)=C/c1cnc(-c2ccccc2)[nH]1 | > 100 | > 100 | > 100 | > 100 | > 100 | > 100 | > 100 | > 100 | > 100 | 80.9 | > 100 | > 100 | > 100 | > 100 | > 100 | > 100 | > 100 | > 100 | > 100 | > 100
Cc1c(-c2nc3ccccc3[nH]2)c(=O)n(-c2ccccc2)n1C | > 100 | > 100 | > 100 | > 100 | > 100 | > 100 | > 100 | > 100 | > 100 | > 100 | > 100 | > 100 | > 100 | > 100 | > 100 | > 100 | > 100 | > 100 | > 100 | > 100
O=C(O)c1cc2c(cc1CC(Cc1ccc3c(c1)CCC3)C(=O)O)CCC2 (stereo unspecified) | > 100 | > 100 | > 100 | > 100 | > 100 | > 100 | > 100 | > 100 | > 100 | > 100 | > 100 | > 100 | > 100 | > 100 | > 100 | > 100 | > 100 | > 100 | > 100 | > 100
CCOc1cc(NC(C)=O)ccc1C(=O)NNC(=O)c1ccccc1OC(C)=O | > 100 | > 100 | > 100 | > 100 | > 36.8 | > 100 | > 100 | > 100 | > 100 | > 100 | > 40.5 | > 59.3 | 32.9 | > 100 | > 28.6 | > 100 | 22.6 | > 91.4 | > 100 | 52.5
NC(=O)CNC(=O)C1CCCN1C(=O)C1CCCCNOC(=O)CC[C@@H](NC(=O)OCC2c3ccccc3-c3ccccc32)C(=O)NC(Cc2c[nH]c3ccccc23)C(=O)N1 (stereo partly specified) (Fmoc-[dE][ξW][X34][ξP]G-NH2; ester 1-3) | > 100 | > 100 | > 100 | > 100 | > 100 | > 100 | > 100 | > 100 | > 100 | > 100 | > 100 | > 100 | > 100 | > 100 | > 100 | > 100 | > 100 | > 100 | > 100 | > 100
C=C1CC(COc2cc(=O)oc3ccccc23)(c2ccccc2)OC1=O (stereo unspecified) | 25.1 | 2.97 | 2.26 | 4.21 | 2.87 | 3.78 | 22.9 | 3.2 | 2.14 | 11 | > 20.8 | 19.3 | 23.7 | 5.9 | 4.01 | 22.7 | 3.35 | 6.92 | 3.35 | 6.65
CCCCCCCCCCCCCCCCCCNc1ccn(C2OC(COP(=O)(O)OCC3OC(n4ccc(NC(=O)CCCCCCCCCCCCCCCCC)nc4=O)C(OC(C)=O)C3OC(C)=O)C(OC(C)=O)C2OC(C)=O)c(=O)n1 (stereo unspecified) | > 100 | > 100 | > 100 | > 100 | > 100 | > 100 | > 100 | > 100 | > 100 | > 100 | > 100 | > 100 | > 100 | > 100 | > 100 | > 100 | > 100 | > 100 | > 100 | > 100
O=C(O)CN(CCNC(=O)OCC1c2ccccc2-c2ccccc21)CCNC(=O)OCC1c2ccccc2-c2ccccc21 | 49.1 | 67.4 | 63 | 51.3 | 31.9 | 70.3 | 44.7 | 32.4 | 40.2 | 34.4 | 49.3 | 81.2 | 41.2 | 49 | 76.1 | 54.7 | 36.8 | 80.1 | 42.3 | 68.8
Cc1ccc(-c2c(C#N)c(-c3ccccc3)n(NS(=O)(=O)c3ccccc3)c(=O)c2C#N)cc1 | > 100 | > 100 | > 100 | > 100 | > 100 | > 100 | > 100 | > 100 | > 100 | > 100 | 72.6 | > 100 | > 100 | > 100 | 55.3 | > 100 | > 100 | > 100 | > 100 | > 100
CC1(C)OCC(COC(=O)C=[N+]=[N-])O1 (stereo unspecified) |  | > 100 | > 100 | > 100 | > 100 | > 100 | > 100 | > 100 | > 100 | > 100 | > 100 | > 100 | > 100 | > 100 | > 100 | > 100 | > 100 | > 100 | > 100 | > 100
COCOC1/C=C/CCCC#C[C@H](C)C(=O)CC1 (stereo partly specified) | 21.1 | 27.1 | 8.46 | 28.9 | 5.99 | 24 | 34.8 | 11.5 | 23.1 | 19.5 | > 29.4 | 35 | 25.5 | 21.5 | 7.63 | 31.7 | 21.7 | 23.6 | 5.64 | 17.8
OC1C2[C@@H](O)CCCN2C[C@@H](O)[C@H]1O (stereo partly specified) | > 100 | > 100 | > 100 | > 100 | > 100 | > 100 | > 100 | > 100 | > 100 | > 100 | > 100 | > 100 | > 100 | > 100 | > 100 | > 100 | > 100 | > 100 | > 100 | > 100
CSc1nc(Cl)c2c(n1)Sc1nc3cc4c(cc3n1C2O)OCCO4 (stereo unspecified) | 14 | 23.3 | 3.76 | 12.1 | 26.6 | 11.1 | 23 | 0.392 | 27.7 | > 100 | 16.7 | 0.889 | 2.39 | 65.2 | 2 | 38.5 |  | 46.6 | 25.2 | 36.1
CC(C)(N=NC(C)(C)C(=O)NCCO)C(=O)NCCO | > 100 | > 100 | > 100 | > 100 | > 100 | > 100 | > 100 | > 100 | > 100 | > 100 | > 100 | > 100 | > 100 | > 100 | > 100 | > 100 | > 100 | > 100 | > 100 | > 100
CN(CCC#N)c1ccc(/C=C2\SC(=S)NC2=O)cc1 | > 100 | 79.2 | > 100 | > 100 | > 100 | > 100 | > 100 | 36.2 | > 100 | > 100 | > 100 | > 100 | > 100 | > 100 | > 100 | > 100 | > 100 | > 100 | > 100 | > 100
O=C1/C(=C/c2ccccc2)N=C(c2ccccc2)N1n1c(-c2ccccc2)nc2ccccc2c1=O | > 100 | > 100 | > 100 | > 100 | > 100 | > 100 | > 100 | > 100 | > 100 | > 100 | > 100 | > 100 | > 100 | > 100 | > 100 | > 100 | > 100 | > 100 | > 100 | > 100
CC1(O)CC(C(F)(F)F)(C(F)(F)F)OC1=O (stereo unspecified) | > 10 | > 10 | > 10 | > 10 | > 10 | > 10 | > 10 | > 10 | > 10 | > 10 | > 10 | > 10 | > 10 | > 10 | > 10 | > 10 | > 10 | > 10 | > 10 | > 10
O=c1nc(N2CCN(c3ccccc3)CC2)ccn1C1OC(CO)C(O)C1O (stereo unspecified) | > 100 | > 100 | > 100 | > 100 | > 100 | > 100 | > 100 | > 100 | > 100 | > 100 | > 100 | > 100 | > 100 | > 100 | > 100 | > 100 | > 100 | > 100 | > 100 | > 100
Cc1ccc([C@@H]2[C@@H](C(=O)c3ccccn3)[C@H](c3ccc(C)cc3)C[C@](O)(c3ccccn3)[C@H]2C(=O)c2ccccn2)cc1 | > 44.7 | > 100 | 4.43 | > 100 | > 100 | > 100 | > 100 | > 100 | > 100 | > 100 | > 100 | > 100 | 10.7 | > 100 | > 92.6 | > 100 | > 100 | > 100 | > 100 | > 100
NC(=O)N/N=C(\Cc1nc2ccc(Cl)cc2[nH]c1=O)C(=O)Nc1ccc(Cl)cc1Cl | > 100 | > 100 | > 100 | > 100 | > 100 | > 100 |  | > 100 | > 100 | > 100 | > 100 | > 100 | > 100 | > 100 | > 100 | > 100 | > 100 | > 100 | > 100 | > 100
Nc1nc2cc3nc(N)c(N)nc3cc2nc1N | > 100 | > 100 | > 100 | > 100 | > 100 | > 100 |  | > 100 | > 100 | > 100 | > 100 | > 100 | > 100 | > 100 | > 100 | > 100 | > 100 | > 100 | > 100 | > 100
